In experiment [1] the target is T1, Axl (Homo sapiens (Human), UniProt P30530). The experiment in a line: biochemical.
Experiment [2] concerns the target T2, Tyro3 (Homo sapiens (Human), UniProt Q06418). The experiment is described as follows: biochemical.
Experiment [3] has as its target T2, Tyro3. The note with it: read-out: IC50 Tyro3.
The target of experiment [4] is T1, Axl. The note with it: read-out: IC50 Axl.
Experiment [5] concerns the target MerTK (Homo sapiens (Human), UniProt Q12866). The note with it: read-out: IC50 MerTK.

SMILES strings stand for the structures. Like-named read-outs stand apart in the source and are kept apart here.

T1 sequence (P30530 26-894 limits assumed): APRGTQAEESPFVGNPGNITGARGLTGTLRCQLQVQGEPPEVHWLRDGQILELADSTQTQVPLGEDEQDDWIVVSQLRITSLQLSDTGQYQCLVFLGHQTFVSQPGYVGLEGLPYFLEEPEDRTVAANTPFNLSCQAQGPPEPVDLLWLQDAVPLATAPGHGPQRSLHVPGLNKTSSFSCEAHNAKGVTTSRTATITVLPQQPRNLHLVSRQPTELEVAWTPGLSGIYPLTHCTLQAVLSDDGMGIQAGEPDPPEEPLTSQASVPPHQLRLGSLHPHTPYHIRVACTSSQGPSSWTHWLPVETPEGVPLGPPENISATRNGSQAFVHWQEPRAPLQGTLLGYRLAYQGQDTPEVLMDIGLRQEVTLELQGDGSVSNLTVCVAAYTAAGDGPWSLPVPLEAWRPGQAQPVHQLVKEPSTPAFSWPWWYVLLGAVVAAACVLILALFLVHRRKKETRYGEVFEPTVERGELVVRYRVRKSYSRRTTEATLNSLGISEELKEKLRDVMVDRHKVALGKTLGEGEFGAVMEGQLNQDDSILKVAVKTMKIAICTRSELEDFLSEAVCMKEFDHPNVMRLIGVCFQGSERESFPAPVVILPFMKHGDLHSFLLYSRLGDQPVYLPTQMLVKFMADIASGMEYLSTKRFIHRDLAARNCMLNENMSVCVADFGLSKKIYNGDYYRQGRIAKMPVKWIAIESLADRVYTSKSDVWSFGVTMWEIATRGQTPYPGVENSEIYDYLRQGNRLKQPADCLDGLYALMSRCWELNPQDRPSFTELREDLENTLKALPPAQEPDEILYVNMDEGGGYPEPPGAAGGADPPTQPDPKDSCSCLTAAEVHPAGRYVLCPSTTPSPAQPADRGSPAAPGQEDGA
T2 sequence (Q06418 41-890 limits assumed): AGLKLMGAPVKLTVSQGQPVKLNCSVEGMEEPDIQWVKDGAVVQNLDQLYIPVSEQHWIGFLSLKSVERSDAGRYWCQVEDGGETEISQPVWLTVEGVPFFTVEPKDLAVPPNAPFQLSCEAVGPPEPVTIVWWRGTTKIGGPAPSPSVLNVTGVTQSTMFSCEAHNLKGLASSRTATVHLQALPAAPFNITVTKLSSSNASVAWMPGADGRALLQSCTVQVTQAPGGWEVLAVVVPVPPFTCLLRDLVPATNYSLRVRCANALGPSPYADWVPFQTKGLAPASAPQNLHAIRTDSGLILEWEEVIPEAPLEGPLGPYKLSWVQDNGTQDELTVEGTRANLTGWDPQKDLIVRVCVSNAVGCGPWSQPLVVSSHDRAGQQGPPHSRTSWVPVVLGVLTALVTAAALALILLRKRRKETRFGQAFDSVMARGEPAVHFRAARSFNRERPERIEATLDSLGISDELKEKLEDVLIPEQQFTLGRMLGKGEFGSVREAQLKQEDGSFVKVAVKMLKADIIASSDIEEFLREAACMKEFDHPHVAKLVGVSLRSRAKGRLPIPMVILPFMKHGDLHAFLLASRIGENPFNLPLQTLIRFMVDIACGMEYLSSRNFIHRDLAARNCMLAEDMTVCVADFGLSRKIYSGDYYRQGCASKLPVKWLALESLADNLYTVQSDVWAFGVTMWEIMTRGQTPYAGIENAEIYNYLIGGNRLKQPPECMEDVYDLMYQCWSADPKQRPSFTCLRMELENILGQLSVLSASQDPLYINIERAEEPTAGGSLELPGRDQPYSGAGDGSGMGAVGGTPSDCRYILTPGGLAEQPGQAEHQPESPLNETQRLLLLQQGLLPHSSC
MerTK, sequence (Q12866 21-999 limits assumed): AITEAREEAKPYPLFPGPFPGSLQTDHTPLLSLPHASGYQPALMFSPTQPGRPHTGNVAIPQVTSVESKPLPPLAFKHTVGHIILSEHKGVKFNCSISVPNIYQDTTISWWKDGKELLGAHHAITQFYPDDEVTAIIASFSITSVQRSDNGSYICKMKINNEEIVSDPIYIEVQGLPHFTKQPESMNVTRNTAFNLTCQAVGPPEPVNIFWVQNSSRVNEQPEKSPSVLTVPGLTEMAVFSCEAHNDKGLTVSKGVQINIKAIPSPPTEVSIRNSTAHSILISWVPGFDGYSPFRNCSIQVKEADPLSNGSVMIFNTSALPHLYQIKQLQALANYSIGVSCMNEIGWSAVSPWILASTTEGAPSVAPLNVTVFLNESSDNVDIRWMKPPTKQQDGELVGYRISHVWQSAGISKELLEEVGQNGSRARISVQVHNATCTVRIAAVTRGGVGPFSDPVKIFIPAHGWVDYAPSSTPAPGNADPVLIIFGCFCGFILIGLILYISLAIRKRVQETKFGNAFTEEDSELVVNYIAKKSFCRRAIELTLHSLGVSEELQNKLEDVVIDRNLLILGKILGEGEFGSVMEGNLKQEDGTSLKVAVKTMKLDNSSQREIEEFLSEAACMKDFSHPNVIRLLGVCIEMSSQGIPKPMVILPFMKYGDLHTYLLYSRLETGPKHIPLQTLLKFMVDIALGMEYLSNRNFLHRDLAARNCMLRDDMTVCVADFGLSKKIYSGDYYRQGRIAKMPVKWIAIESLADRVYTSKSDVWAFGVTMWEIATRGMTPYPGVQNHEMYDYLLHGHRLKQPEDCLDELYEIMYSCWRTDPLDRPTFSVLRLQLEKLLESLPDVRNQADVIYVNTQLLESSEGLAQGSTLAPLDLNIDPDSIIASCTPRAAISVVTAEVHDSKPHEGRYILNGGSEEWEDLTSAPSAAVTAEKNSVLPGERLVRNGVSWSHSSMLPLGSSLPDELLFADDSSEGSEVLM

By IC50 is commonly meant the concentration at which inhibition is half-maximal. Consider `CCCCNc1ncc(C(=O)NCC2CCN(C)CC2)c(N[C@H]2CC[C@H](O)CC2)n1` [UNC2742A], for which the IC50 in experiment [1] stood at 534 nM; in experiment [2], 247 nM.
The corresponding values for `CCCCNc1ncc(-c2cc(N3CCCC3)ncn2)c(N[C@H]2CC[C@H](O)CC2)n1` [UNC3195A] are 188 nM and 230 nM.
On to `CCCCNc1ncc(-c2ccc(CN3CC(F)(F)C3)o2)c(N[C@H]2CC[C@H](O)CC2)n1` [UNC2900A], for which the IC50 in experiment [1] is 1850 nM; in experiment [2], 370 nM.
Consider `CCCCNc1ncc(-c2ccc(CC3CCN(C)CC3)cn2)c(N[C@H]2CC[C@H](O)CC2)n1` [UNC4337A, Trans-4-((2-(butylamino)-5-(5-((1-methylpiperidin-4-yl)methyl)pyridin-2-yl)pyrimidin-4-yl)amino)cyclohexan-1-ol], for which the half-inhibitory concentration (IC50) came to 66 nM in experiment [3], 74 nM in experiment [4] and 4.4 nM in experiment [5].
Take `CCCCNc1ncc(-c2cc(N3CCCCC3)ncn2)c(N[C@H]2CC[C@H](O)CC2)n1` [UNC3198A]: the IC50 in experiment [1] was 6070 nM; in experiment [2], 3740 nM.
The corresponding values for `CCCCNc1ncc(-c2ccc(CN3CCCC3)cn2)c(N[C@H]2CC[C@H](O)CC2)n1` [UNC2490A] are 36 nM and 18 nM.
For `CCCCNc1ncc(-c2cnccn2)c(N[C@H]2CC[C@H](O)CC2)n1` [UNC2794A], the values for the IC50 in experiment [1] and in experiment [2] were 604 nM and 158 nM, respectively.
As for `CCCCNc1ncc(-c2cc(NC3CC3)ncn2)c(N[C@H]2CC[C@H](O)CC2)n1` [UNC3193A], the IC50 in experiment [1] came out at 169 nM; in experiment [2], 115 nM.
The corresponding values for `CCCCNc1ncc(C(=O)NCCCN2CCOCC2)c(N[C@H]2CC[C@H](O)CC2)n1` [UNC1839A] are 951 nM and 1070 nM.
With `CCCCNc1ncc(C(=O)NC2CC(C)(C)N(C)C(C)(C)C2)c(N[C@H]2CC[C@H](O)CC2)n1` [UNC2695A], the IC50 in experiment [1] worked out at 233 nM; in experiment [2], 76 nM.
With `CCCCNc1ncc(C(=O)NC2CCN(C3CCN(C)CC3)CC2)c(N[C@H]2CC[C@H](O)CC2)n1` [UNC2698A], the IC50 turned out to be 175 nM in experiment [1] and 43 nM in experiment [2].
As for `CCCCNc1ncc(C(=O)Nc2ccc(CCO)cc2)c(N[C@H]2CC[C@H](O)CC2)n1` [UNC1846A], the IC50 came out at 1190 nM in experiment [1] and 1070 nM in experiment [2].
The corresponding values for `CCCCCNc1cc(-c2cnc(NCCCC)nc2N[C@H]2CC[C@H](O)CC2)ncn1` [UNC3201A] are 112 nM and 195 nM.
`CCCCNc1ncc(-c2ccc(CCN3CCN(C)CC3)cn2)c(N[C@H]2CC[C@H](O)CC2)n1` [UNC2795A]: the IC50 turned out to be 211 nM in experiment [1] and 82 nM in experiment [2].
For the molecule `CCCCNc1ncc(-c2cc(NC3CCCC3)ncn2)c(N[C@H]2CC[C@H](O)CC2)n1` [UNC3199A], the IC50 in experiment [1] stood at 1360 nM; in experiment [2] it was 847 nM.
Consider `CCCCNc1ncc(C(=O)NCc2ccc(CN3CCOCC3)cc2)c(N[C@H]2CC[C@H](O)CC2)n1` [UNC2735A], for which the IC50 was determined as 189 nM in experiment [1] and 145 nM in experiment [2].
On to `CCCCNc1ncc(-c2ncc(COCc3ccccc3)s2)c(N[C@H]2CC[C@H](O)CC2)n1` [UNC2863A], for which the IC50 was found to be 2610 nM in experiment [1] and 1220 nM in experiment [2].
For `CCCCNc1ncc(-c2cc(N3CCOCC3)ncn2)c(N[C@H]2CC[C@H](O)CC2)n1` [UNC3196A], the half-maximal inhibitory concentration (IC50) came out at 2130 nM in experiment [1] and 1000 nM in experiment [2].
The corresponding values for `CCCCNc1ncc(C(=O)NCc2ccncc2)c(N[C@H]2CC[C@H](O)CC2)n1` [UNC1849A] are 1260 nM and 1740 nM.
As for `CCCCNc1ncc(C(=O)NCCCCO)c(N[C@H]2CC[C@H](O)CC2)n1` [UNC1844A], the IC50 in experiment [1] is 1180 nM; in experiment [2] it was 1080 nM.
In the case of `CCCCNc1ncc(C(=O)NC2CCC2)c(N[C@H]2CC[C@H](O)CC2)n1` [UNC2737A], the values for the IC50 in experiment [1] and in experiment [2] were 491 nM and 443 nM, respectively.
The like results for `CCCCNc1ncc(C(=O)NCC2CCN(C3CCCC3)CC2)c(N[C@H]2CC[C@H](O)CC2)n1` [UNC2743A] were, in that order, 166 nM and 84 nM.
The like results for `CCCCNc1ncc(-c2ccc(C(=O)NC3CCN(C)CC3)o2)c(N[C@H]2CC[C@H](O)CC2)n1` [UNC3181A] were, in that order, 1030 nM and 507 nM.
`CCCCNc1ncc(-c2ccc(F)cn2)c(NC[C@H]2CC[C@H](N)CC2)n1` [UNC3021A]: the figures for the IC50 in experiment [1] and in experiment [2] were 621 nM and 114 nM, respectively.
Regarding `CCCCNc1ncc(-c2ccc(C=C3CCN(C(C)C)CC3)cn2)c(N[C@H]2CC[C@H](O)CC2)n1` [UNC4340A], the results for the IC50 in experiment [3], in experiment [4] and in experiment [5] were 8.5 nM, 9.2 nM and 1.1 nM, respectively.
Take `CCCCNc1ncc(-c2cc(NC3CCCCC3)ncn2)c(N[C@H]2CC[C@H](O)CC2)n1` [UNC3194A]: the IC50 in experiment [1] amounted to 260 nM; in experiment [2], 239 nM.
Regarding `CCCCNc1ncc(-c2cc(N3CCN(C)CC3)ncn2)c(N[C@H]2CC[C@H](O)CC2)n1` [UNC3197A], the results for the IC50 in experiment [1] and in experiment [2] were 1680 nM and 1170 nM, respectively.
The like results for `CCCCNc1ncc(-c2ccc(CNCc3ccccc3)cn2)c(N[C@H]2CC[C@H](O)CC2)n1` [UNC2572A] were, in that order, 136 nM and 43 nM.
The corresponding values for `CCCCNc1ncc(-c2ccc(C(=O)N(C)C3CCN(C)CC3)cn2)c(N[C@H]2CC[C@H](O)CC2)n1` [UNC2915A] are 49 nM and 6.5 nM.
The corresponding values for `CCCCNc1ncc(-c2cc(NC(C)C)ncn2)c(N[C@H]2CC[C@H](O)CC2)n1` [UNC3192A] are 86 nM and 77 nM.
With `CCCCNc1ncc(-c2ccc(CNCc3ccncc3)cn2)c(N[C@H]2CC[C@H](O)CC2)n1` [UNC2571A], the IC50 in experiment [1] came out at 44 nM; in experiment [2], 18 nM.
Turning to `CCCCNc1ncc(C(=O)NC2CCCCCC2)c(N[C@H]2CC[C@H](O)CC2)n1` [UNC2734A], the IC50 is 665 nM in experiment [1] and 505 nM in experiment [2].
On to `CCCCNc1ncc(-c2ccc(CN3CCCN(C)CC3)cn2)c(N[C@H]2CC[C@H](O)CC2)n1` [UNC2405A], for which the IC50 came to 183 nM in experiment [1] and 98 nM in experiment [2].
The like results for `CCCCNc1ncc(-c2ncc(CN3CCCC3)s2)c(N[C@H]2CC[C@H](O)CC2)n1` [UNC4223A] were, in that order, 29 nM and 14 nM.
`CCCCNc1ncc(-c2ccc(C#CCN3CCN(C)CC3)cn2)c(N[C@H]2CC[C@H](O)CC2)n1` [UNC2793A]: the results for the IC50 in experiment [1] and in experiment [2] were 153 nM and 60 nM, respectively.
In the case of `CCCCNc1ncc(-c2ccc(CCCN3CCN(C)CC3)cn2)c(N[C@H]2CC[C@H](O)CC2)n1` [UNC2792A], the IC50 was found to be 191 nM in experiment [1] and 75 nM in experiment [2].
The corresponding values for `CCCCNc1ncc(-c2ccc(CNCC3CC3)cn2)c(N[C@H]2CC[C@H](O)CC2)n1` [UNC2547A] are 30 nM and 11 nM.
For `CCCCNc1ncc(-c2ccc(C3=CCN(C(C)C)CC3)cn2)c(N[C@H]2CC[C@H](O)CC2)n1` [UNC4358A], the results for the IC50 in experiment [3] and in experiment [4] were 42 nM and 24 nM, respectively.
Regarding `CCCCNc1ncc(-c2ccc3ccccc3n2)c(N[C@H]2CC[C@H](O)CC2)n1` [UNC2860A], the IC50 in experiment [1] was found to be 30000 nM; in experiment [2], 755 nM.
As to `CCCCNc1ncc(C(=O)NCCCN2CCOCC2)c(NCCCC)n1` [UNC1840A], the IC50 in experiment [3] stood at 4640 nM; in experiment [4], 5540 nM.
In the case of `CCCCNc1ncc(-c2cc(O)c(CN3CCCC3)cn2)c(N[C@H]2CC[C@H](O)CC2)n1` [UNC4230A], the IC50 in experiment [3] was found to be 734 nM; in experiment [4] it was 1760 nM.
The corresponding values for `CCCCNc1ncc(-c2ncc(C(=O)O)s2)c(N[C@H]2CC[C@H](O)CC2)n1` [UNC3331A] are 95 nM and 414 nM.
For the molecule `CCCCNc1ncc(C(=O)NCc2ccc(-n3cnc(-c4ccccc4)c3)cc2)c(N[C@H]2CC[C@H](O)CC2)n1` [UNC2969A], the IC50 in experiment [3] came to 1060 nM; in experiment [4] it was 667 nM.
Turning to `CCCCNc1ncc(-c2ccc(NC(=O)C3CCCC3)cn2)c(NC2CCC(O)CC2)n1` (stereo not drawn) [UNC2791A], the IC50 was 416 nM in experiment [3] and 886 nM in experiment [4].
`CCCCNc1ncc(-c2cc(NC(C)(C)C)ncn2)c(N[C@H]2CC[C@H](O)CC2)n1` [UNC3200A]: the IC50 in experiment [1] worked out at 480 nM; in experiment [2], 259 nM.
With `CCCCNc1ncc(C(=O)NCCc2ccc(F)cc2)c(N[C@H]2CC[C@H](O)CC2)n1` [UNC1850A], the values for the IC50 in experiment [1] and in experiment [2] were 1640 nM and 1210 nM, respectively.
The corresponding values for `CCCCNc1ncc(-c2ccc(CN3CCOCC3)o2)c(N[C@H]2CC[C@H](O)CC2)n1` [UNC2898A] are 2550 nM and 374 nM.
The corresponding values for `CCCCNc1ncc(-c2cccc(CN3CCN(C)CC3)n2)c(N[C@H]2CC[C@H](O)CC2)n1` [UNC2622A] are 296 nM and 162 nM.
`CCCCNc1ncc(-c2cn(C)cn2)c(N[C@H]2CC[C@H](O)CC2)n1` [UNC3116A]: the results for the 50% inhibitory concentration (IC50) in experiment [3] and in experiment [4] were 3940 nM and 10000 nM, respectively.
The like results for `CCCCNc1ncc(-c2ccc(C=C3CCNCC3)cn2)c(N[C@H]2CC[C@H](O)CC2)n1` [UNC4336A] were, in that order, 13 nM and 40 nM.

The values above are taken from patent US9649309B2 (priority 2014, dated 2017).
